Test results taken from US20010003121A1, “Novel compounds” (AstraZeneca UK Limited, priority 1997, published 2001).
Structures can show the parent of a compound that is named as a salt.

Point of comparison: `CN(C)CCNc1ccc(Cl)c(C(=O)NCC23CC4CC(CC(C4)C2)C3)c1` [Example 57, 2-Chloro-5-(N,N-dimethylamino)ethylamino-N-(tricyclo[3.3.1.1^3,7]dec-1-ylmethyl)-benzamide], melting point 215 °C. Against it:
- CNc1ccc(Cl)c(C(=O)NCC23CC4CC(CC(C4)C2)C3)c1 [Example 62, 2-Chloro-5-methylamino-N-(tricyclo[3.3.1.1^3,7]dec-1-ylmethyl)-benzamide] — lower, 163 to 164 °C
- CN(C)c1ncccc1C(=O)NCC12CC3CC(CC(C3)C1)C2 (as salt: hydrochloride) [Example 35, 2-(Dimethylamino)-N-(tricyclo[3.3.1.1^3,7]dec-1-ylmethyl)-3-pyridine carboxamide, hydrochloride] — lower, 204 to 205 °C
- O=C(NCC12CC3CC(CC(C3)C1)C2)c1cc([N+](=O)[O-])ccc1Cl [Example 53, 2-Chloro-5-nitro-N-(tricyclo[3.3.1.1^3,7]dec-1-ylmethyl)-benzamide] — lower, 178 °C
- Cc1ccc(C)c(C(=O)NCC23CC4CC(CC(C4)C2)C3)c1 [Example 22, 2,5-Dimethyl-N-(tricyclo[3.3.1.1^3,7]dec-1-methyl)-benzamide] — lower, 153 to 154 °C
- O=C(NCC12CC3CC(CC(Cl)(C3)C1)C2)c1ccccc1Cl [Example 76, 2-Chloro-N-(3-chloro-tricyclo[3.3.1.1^3,7]dec-1-ylmethyl)-benzamide] — lower, 153 °C
- O=C(NCCC12CC3CC(CC(C3)C1)C2)c1cccc(Cl)c1Cl [Example 73, 2,3-Dichloro-N-(2-[tricyclo(3.3.1.1^3,7]dec-1-yl]ethyl)-benzamide] — lower, 158 to 159 °C
- O=C(NCC12CC3CC(CC(C3)C1)C2)c1cc(NCCCl)ccc1Cl — lower, 144 to 145 °C
- O=C(O)CSc1ncccc1C(=O)NCC12CC3CC(CC(C3)C1)C2 [Example 45, 3-[[(Tricyclo[3.3.1.1^3,7]dec-1-ylmethyl)amino]carbonyl]pyridyl-2-thioacetic acid] — lower, 147 to 150 °C
- O=C(O)COc1ccc(Sc2ncccc2C(=O)NCC23CC4CC(CC(C4)C2)C3)cc1 [Example 47, 3-[[(Tricyclo[3.3.1.1^3,7]dec-1-ylmethyl)amino]carbonyl]pyridyl-2-(4-phenylthio) oxyacetic acid] — lower, 185 to 186 °C
- Nc1cccc(Cl)c1C(=O)NCCC12CC3CC(CC(C3)C1)C2 [Example 29, 2-Amino-6-chloro-N-(2-[tricyclo[3.3.1.1^3,7]dec-1-yl]ethyl)-benzamide] — lower, 132 to 134 °C
- O=C(NCC12CC3CC(CC(C3)C1)C2)c1ccc2[nH]ccc2c1 [Example 28, N-(tricyclo[3.3.1.1^3,7]dec-1-methyl)-5-indole carboxamide] — lower, 206 to 207 °C
- CC(C)(C)OC(=O)COc1ccccc1C(=O)NCC12CC3CC(CC(C3)C1)C2 [Example 25, 2-[[(Tricyclo[3.3.1.1^3,7]dec-1-ylmethyl)amino]carbony]phenyl-1-oxyacetic acid, 1,1-dimethylethyl ester] — lower, 101 to 103 °C
- Cc1ccc(C)c(C(=O)NCC23CC4CC(CC(Cl)(C4)C2)C3)c1 [Example 78, 2,5-Dimethyl-N-(3-chloro-tricyclo[3.3.1.1^3,7]dec-1ylmethyl)-benzamide] — lower, 155 °C
- O=C(NCC12CC3CC(CC(C3)C1)C2)c1cccnc1Sc1cc(O)ccc1O [Example 44, 2-(2,5-Dihydroxyphenylthio)-N-(tricyclo[3.3.1.1^3,7]dec-1-ylmethyl)-3-pyridine carboxamide] — lower, 108 to 110 °C
- Nc1ccc(Cl)c(C(=O)NCCC23CC4CC(CC(C4)C2)C3)c1 [Example 74, 5-Amino-2-chloro-N-(2-[tricyclo[3.3.1.1^3,7]dec-1-yl]ethyl)-benzamide] — lower, 147 to 149 °C
- O=C(NCC12CC3CC(CC(C3)C1)C2)c1cccc([N+](=O)[O-])c1Cl [Example 52, 2-Chloro-3-nitro-N-(tricyclo[3.3.1.1^3,7]dec-1-ylmethyl)-benzamide] — lower, 185 °C
- O=C(NCC12CC3CC(CC(C3)C1)C2)c1c(Cl)cccc1Cl [Example 4, 2,6-Dichloro-N-(tricyclo[3.3.1.1^3,7]dec-1-methyl)-benzamide] — higher, 246 to 247 °C
- CN(C)CCCOc1ccc(Sc2ncccc2C(=O)NCC23CC4CC(CC(C4)C2)C3)cc1 (as salt: hydrochloride) [Example 48, 2-(4-(3-N,N-dimethylamino)propyloxyphenylthio)-N-(tricyclo[3.3.1.1^3,7]dec-1-ylmethyl)-3-pyridine carboxamide, dihydrochloride] — lower, 177 to 178 °C

With `Cc1c(N)cc(N)cc1C(=O)NCC12CC3CC(CC(C3)C1)C2` [Example 66, 3,5-Diamino-2-methyl-N-(tricyclo[3.3.1.1^3,7]dec-1-ylmethyl)-benzamide] the melting point was 220 °C (dec.).
With `O=C(NCC12CC3CC(CC(C3)C1)C2)c1cc(NCCNCCO)ccc1Cl` (as salt: hydrochloride) [Example 71, 5-(N-(2-Hydroxyethyl)-2-aminoethyl)amino-2-chloro-N-(tricyclo[3.3.1.1^3,7]dec-1-ylmethyl)-benzamide, dihydrochloride] the melting point was 143 °C (dec.).
